We go through four molecules from patent US9453050B2, “Compositions for treating glioma” (GLIA SP Z.O.O., priority 2011, dated 2016).

The test system of data set [1] is microglia cells. As to the kind of experiment: Real-Time PCR of M2 phenotype markers and iNOS in microglia treated with U87-MG GCM plus peptides. The class given is cell-based, mouse. Particulars: 500 μM peptide in GCM, 6 h. As for the experimental part: (§1) Total RNA (2 μg) isolated from microglia cultures untreated or treated for 6 h with LPS or G-CM was used as a template to generate cDNA. As endogenous control 18S (Hs99999901_s1) rRNA was applied. Gene expression quantification was performed using the Applied Biosystem TaqMan® The real time amplifications were performed in duplicates in a 20 μl reaction volume containing 2×SYBR PCR MasterMix and a set of primers designed using PRIMER EXPRESS software for the following genes: iNOS, COX-2, II1beta, TNF alpha, MMP-2, MMP-9, MMP-14, Arg1, Id1 and c-Myc. The amount of target mRNA was first normalized to the 18S RNA expression level and then to a control. Data were analysed by the Relative Quantification (^ΔΔCt) method using 7500 System SDS software (Applied Biosystems). The expression of each product was normalized to 18S rRNA and is shown as the ratio of the target gene to 18S gene expression, calculated by 2^−ΔΔCt.
U87-MG human glioma cells were plated on 100 mm culture dishes in a total volume of 8 mL culture medium for 24 h. […]
The expression level of genes that were previously identified as markers of the M2 microglia/macrophage phenotype (see FIG. 4.) such as: Arg1, Id1, c-Myc and MMP-14 was determined using Real-Time PCR. Likewise, the expression level of iNOS was determined to evaluate induction of an immune response. […]
On the technique in general: Real-time PCR tracks product formation cycle by cycle.

In data set [2] the test system is rat primary microglia cultures. The data set can be described thus: GCM-induced amoeboid transformation of microglia (F-actin staining). Type of data set: cell-based. Particulars: pre-incubation with 500 μM peptide; FIG. 6A. As for the experimental part: Cell culture and treatment. Primary cultures of rat microglia were prepared from 1-day-old Wistar rat pups as described previously (Zawadzka and Kaminska 2003). Briefly, cells were isolated from cerebral cortices by trypsination, mechanically dissociated and plated at the density of 3×10^5 cells/cm^2 in Dulbecco's modified Eagle medium (with Glutamax and high-glucose formula 4.5 g/L, Gibco) supplemented with heat-inactivated 10% fetal bovine serum (Gibco), 100 U/mL penicillin, and 0.1 mg/mL streptomycin on poly-L-lysine coated culture 75 cm^2 flasks. Murine pEGFP-GL261 glioma cells were cultured in DMEM with 10% FBS and antibiotics (50 U/ml penicillin, 50 μg/ml streptomycin). Primary cultures of astrocytes were prepared from cerebral cortex of 2-day-old C57BL/6 newborn mice. Astrocytes were cultured in DMEM media with high glucose supplemented with 10% FBS, 100 U/ml penicillin and 100 μg/ml streptomycin. Culture medium was changed after 3 days and then twice a week. Cell cultures were maintained at 37° C. in humidified 5% CO2/95% air incubator (Heraeus, Hanau, Germany). […]
Cells were washed with a phosphate buffer saline (PBS) and fixed with 2% paraformaldehyde at indicated time periods. […] Morphological alterations were monitored by fluorescent microscopy with excitation 450-490 nm, recorded with 20× objective. […]

Data set [3] relates to rat primary microglia cultures. The data set can be described thus: Phagocytosis of fluorescent beads by GCM-treated microglia. The class given is cell-based. Particulars: 500 μM peptide; FIG. 6B. As for the experimental part: Microglia cells (1×10^5) were seeded on 24-wells plates and after 24 hours cells were transfected with 25 nM control non-targeting siRNA, and siRNA to αv or β3, or two siRNA together (ON-TARGET siRNA, Dharmacon) using 0.25 μl of DharmaFECT 3 transfection reagent in 0.5 ml culture medium. After 48 h the transfection medium was replaced by G-CM and phagocytic properties of microglia were determined as described. To estimate the silencing efficiency cells were removed from the culture plates by trypsynization and suspended in MACS buffer (PBS, 2 mM EDTA, 0.5% BSA) at final concentration 1×10^5 cells/100 μl. Cell surface expression of the integrins was analysed using primary antibodies to αv or β3 (BD Biosciences) and anti-mouse-Alexa Fluor 647 secondary antibody (Invitrogen). The fluorescent intensity of the labelled cells was analysed with FACSCalibur (Beckton Dickinson). The mean fluorescent intensity was compared with the control siRNA and expressed as the relative change to the control condition for each experimental siRNA.
Phagocytic properties of microglia were determined by incubation of cells with 2 μm fluorescent latex beads (Sigma-Aldrich, Saint Louis, Mo., USA) for 90 min. […] The percentage of cells with none/low (<2 beads per cell), medium (≧2<10) or high (≧10 beads per cell) phagocytic activity was counted. […]

The test system of data set [4] is rat primary microglia cultures. As to the kind of experiment: Scratch assay of microglia motility. Particulars: GCM with RGD inhibitor; FIG. 6C. Type of data set: cell-based. Here is the method:
Microglia were platted on a 35 mm Petri dish at the density of 1.5×10^6 cells and after 48 hours the cultures were gently scratched using a pipette tip and microglia cells were cultured under various experimental conditions (control, 100 ng/mL LPS or G-CM). Motility of microglia cells was determined 3 hours after treatment. Migrating cells were visualized by phase-contrast microscopy.
Using the rat lactadherin amino acid sequence, a 7-aa RGD-containing peptide (RGD) was designed as a competitive inhibitor (set forth in SEQ ID NO: 18). A scrambled sequence peptide was used as a control (SCR). Pre-incubation with the chemically synthesized 500 μM RGD peptide, but not with the SCR peptide, prevented transformation of microglia into amoeboid cells following GCM induction (amoeboid cells indicated with arrows) (FIG. 6A).

In data set [5] the test system is phosphorylated FAK, Akt and ERK in microglia cells. The data set can be described thus: Immunoblotting of phosphorylated kinases in GCM-treated microglia. Particulars: pre-treatment with peptide; FIG. 6E. The class given is cell-based, rat. As for the experimental part:
Whole cell lysates were prepared by scraping the cells into the buffer containing phosphatase and protease inhibitors (20 mM Tris HCl, pH6.8, 137 mM sodium chloride, 25 mM β-glycerophosphate, 2 mM sodium pyrophosphate, 2 mM EDTA, 1 mM sodium orthovanadate, 1% Triton X-100, 10% glycerol, 5 μg/ml leupeptin, 5 μg/ml aprotinin, 2 mM benzamidine, 0.5 mM DTT, 1 mM PMSF). The protein concentration was determined with the Bradford assay (Sigma-Aldrich, Saint Louis, Mo., USA). Protein extracts were separated on SDS-PAGE before electrophoretic transfer onto a nitrocellulose membrane (Amersham Biosciences, Germany) as described (Ellert-Miklaszewska et al. 2005; Sliwa et al. 2007). After blocking with 5% non-fat milk in TBS-T (Tris-buffered saline pH 7.6/0.15% Tween 20) the membranes were incubated with primary antibodies diluted in a blocking buffer overnight and then with relevant secondary antibodies for one hour. Antibodies recognizing phosphorylated and total forms of p38, ERK1/2, JNK, STAT1, STAT3, STATS, AKT, FAK and IκB as well as Cox-2 (all diluted 1:1000) and horseradish peroxidase-conjugated anti-rabbit IgG (diluted 1:2000) were purchased from Cell Signaling Technology (Beverly, Mass., USA); iNOS (diluted 1:2000) from BD Biosciences (Bedford, Mass., USA). Immunocomplexes were visualized by using ECL (Amersham). […]

Data set [6] deals with microglia cells. As to the kind of experiment: qPCR of GCM-induced genes in microglia exposed to GCM of shRNA-expressing C6 glioma cells. The class given is cell-based, rat. Particulars: FIG. 7B. Here is the method: as §1
To investigate the role of identified proteins in GCM-induced activation of microglia cells, stable C6 glioma cell lines expressing shRNAs specific to osteopontin (shSPP1), or a control, negative shRNA (shNeg) were generated. Silencing efficiency was approximately 98.5% (FIGS. 7A and C). Silencing of […] inhibited GCM-induced expression c-Myc and smad7 in microglia cells (FIG. 7B). […]

Regarding “DGRGDSV (SYNTHTIC PEPTIDE) [OPN inhibiting peptide]”, in the data set on microglia cells [1] (FIG. 17B-C), the “Id1 expression level (M2 marker)” value is on record as “down-regulated”. In addition, the “Arg1 expression level (M2 marker)” value with microglia cells [1] (vs control peptide, FIG. 17A) was “down-regulated”.
Regarding “DQIGFRT [SCR peptide, reference compound]”, the “transformation of microglia into amoeboid cells following GCM induction” value in data set [2] is recorded as “not”.
TQRGDIF [RGD peptide]: in data set [2], the “transformation of microglia into amoeboid cells following GCM induction” value is given as “prevented”. Besides, the GCM-induced phagocytosis entry in data set [3] was “completely blocked”. Further, the “microglia migration in a scratch assay” value in data set [4] was “completely blocked”. In data set [5], the “activation of phosphorylated FAK, Akt and ERK kinases by GCM” value was “abolished”.

B1: lactadherin shRNA: shRNA to rat lactadherin, oligonucleotides SEQ ID NO: 25 and 26, stably expressed in C6 glioma cells (nucleic acid)
chain 1: GATCCGGATGAAAGCGGAACCGGATTCAAGAGATCCGGTTCCGCTTTCATCCTGTTTTTTGGAAA
chain 2: AGCTTTTCCAAAAAACAGGATGAAAGCGGAACCGGATCTCTTGAATCCGGTTCCGCTTTCATCCG
modifications: the letters are possibly those of the target site
In the case of B1, the “GCM-induced expression c-Myc and smad7 in microglia cells” value in the data set with microglia cells [6] is given as “inhibited”.
